Measured values taken from patent US10292991B2, “Small molecule therapeutic compounds that reduce the incidence of intracerebral hemorrhage and brain microhemorrhages” (St. Michaels Hospital, priority 2016, dated 2019).
Read-outs that look alike come from different tables or passages of the source.

Assays:
[1] = tested on: bbh mutant zebrafish (mutation in βPix), spontaneous ICH; assay: bbh (bubblehead) mutant genetic model of brain hemorrhage; type: in vivo, zebrafish (Danio rerio); details: Danio rerio, read-out: EC50 to rescue brain hemorrhage, bbh Mutant Model
Excerpt: A specific zebrafish line with a gene mutation called bubblehead (bbh) was used. This line has spontaneous ICH. Bubblehead phenotype is caused by a mutation in βPix. Adult homozygous zebrafish were viable and fertile. […] More than 85% of zebrafish larvae display an ICH phenotype.

[2] = Spectrophotometer analysis of blood hemoglobin concentration (Drabkin's method); type: in vivo, C57BL/6 mice; details: 25 mg/kg or 100 mg/kg for 3 days, n=4; no statistical difference between groups
Protocol: Drabkin's reagent (Sigma Aldrich) was used for calorimetric quantification of hemoglobin concentration at 540 nm. C57BL/6 mice were randomly assigned to three groups (each n=4): Control, Low-dose ARM, and High-dose ARM. For ARM groups, three days of 25 mg/kg/day and 100 mg/kg/day ARM were administered for low and high dose, respectively. Blood from saphenous vein were collected at day 4 and tested for hemoglobin concentration using UV 3600 Shimadzu spectrophotometer. A standard curve was generated using a known standard solution of cyanmethemoglobin, and blood concentrations of Hb was compared to the standard curve.
To assess possible anemia effect from ARM treatment as some previous studies speculated, blood samples were tested for hemoglobin concentration after ARM treatment. Blood hemoglobin concentration was assessed using Drabkins' method. Spectrophotometer data was compared to a standard curve from standard cyanmethemoglobin concentrations. The control group received no drug. The Treatment Dose group received 3 days injection of low dose ARM (25 mg/kg), 4× Treatment Dose group received 3 days injection of high dose ARM (100 mg/kg).

[3] = tested on: β-Pix MO-induced hemorrhage in zebrafish; assay: βPix morpholino-induced hemorrhage in zebrafish, rescue by drugs; type: in vivo, zebrafish (Danio rerio)
Protocol: Morpholino oligonucleotides (MOs) were custom-synthesized by Gene Tools (Carvalis, Oreg.); their sequences are shown in Table 1.
Danieau buffer (58 mM NaCl, 0.7 mM KCl, 0.4 mM MgSO4, 0.6 mM Ca(NO3)2, 5.0 mM HEPES, pH 7.6) was used to dilute the MO solutions to 0.2 mM final concentration. Individual wells were placed on a 1.0% agarose plate, in which the embryos were positioned. Afterwards, the MO solution was injected through the cell yolk into embryos of 1 to 4 cell-stage. The injected quantities varied from 0.5 to 15 ng.
bbhm292 zebrafish mutant has a hypomorphic mutation in βPix, resulting in ICH/BMH and hydrocephalus. The MO is βPixexon6-MO which blocks splicing of exon 6 and results in premature protein termination. […] Higher doses of βPixexon6-MO (up to 8 ng) result in a lack of blood circulation, and therefore no ICH/BMH was detected. Injection of 8 ng results in complete missplicing of βPix and therefore a null phenotype, whereas lower doses retain some normally spliced βPix. The βPixexon6-MO sequence is 5′-[…]-3′ [SEQ ID NO: 1]. 3Pixexon6-MO was injected into the embryos at the 1-2 cell stage, and compounds were added 12 hpf.
The first three morpholino pairs were good for the efficacy study. Efficacy assays were performed using Artemether (ARM, Sigma) and artemesunate (ART, GMP). […] Treating these morphants with the drugs rescued the ICH phenotype.

[4] = tested on: brain hemorrhage induced by 1 μM atorvastatin in zebrafish; assay: Atorvastatin-induced brain hemorrhage (ICH) model in zebrafish, rescue by drugs; details: for EC50: Danio rerio
Protocol: Zebrafish were set up the night before the experiment day. In the morning of the experimental day, we put breeders together for mating and fertilization. 6 hours post-fertilization (hpf), statins was added into a 96-well plate holding 100 μl water with 7 to 8 fish eggs in each well, which was optimized through a serial pilot experiments. Statins were dissolved in DMSO and diluted with 0.5% of DMSO water into a working solution. 100 μl water containing 0.5% of DMSO was the medium for all wells in the final assessment.
For screening NIH compound libraries, 5 μM of each of the drugs from the library was added at 24 hpf into wells containing fish eggs treated with 1 μM ATV since 6 hpf. Hemorrhage positive control wells were treated with ATV but not treated with any drugs. Negative controls were not treated with any chemicals (fish with 0.5% of DMSO water). Geranylgeranyl pyrophosphate (GGPP, 4 mg/L) was used as positive rescue control.
Brain hemorrhage was assessed 72 hpf (66 hours after addition of statins) using stereomicroscopy by two observers. Percentage of brain hemorrhage was used as final readout. Compounds showing more than 70% of rescue of the brain hemorrhages in the initial test were re-tested to generate a final list of hits from the library.
All subsequent EC50 assays of positive compounds were performed with protocols established and optimized during the screening.

[5] = tested on: ICH induced by anti-β3 integrin serum in neonatal mice; assay: Anti-β3 integrin mouse model of intracerebral hemorrhage; type: in vivo, β3+/− mice (neonates)
Excerpt: An anti-β3 integrin model of intracerebral hemorrhage (ICH) was generated according to our previously reported methods (Yougbare I, Lang S, Yang H et al. Maternal anti-platelet beta3 integrins impair angiogenesis and cause intracranial hemorrhage. J Clin Invest 2015; 125:1545-1556). Briefly, serum containing anti-β3 antibodies was generated by immunizing β3−/− female mice with gel-filtered wild type platelets via tail-vein injections twice a week. To detect anti-β3 antibody, blood was collected from the saphenous vein of immunized female mice and left to clot. […]
For the integrin ICH model, brains were taken out of the skull, cut at the mid-coronal position and assessed in a binary manner for whether or not there was any evidence of ICH. […]
Brains were scanned using 7T Burker MRI with 16-channel solenoid coils. […] Following the reconstruction of images and applying image distortion correction algorithms, all brains were processed and analyzed for total volume of brain and total volume of hemorrhage. Quantification was done using percentage of bleeding (normalized to each brain size). […] Lastly, quantification was done in a blinded fashion. All quantifications and 3D reconstructions were performed using a combination of Display and Amira processing software.

Structure (SMILES): CO[C@H]1O[C@@H]2O[C@@]3(C)CC[C@H]4[C@H](C)CC[C@@H]([C@H]1C)[C@@]24OO3 [Artemether]
- EC50 [1]: 37.5 nM
- Anemia (blood hemoglobin concentration) [2]: did not cause anemia
- EC50 ([3]; Danio rerio, Table 6, read-out: EC50 to rescue hemorrhage induced by βPix - exon6 morpholino): 51.6 ± 11.7 nM
- Efficacy on β-Pix MO Hemorrhage ([3]; inhibition of β-Pix MO-induced hemorrhage): +++++ (One + sign represents 20% inhibition on 1 μmol/L ATV or β-Pix MO-induced hemorrhage.)
- Hemorrhage in zebrafish treated with 1 μmol/L atorvastatin and drug ([4]; 500 nmol/L drug, 3 dpf): no hemorrhage was observed
- Efficacy on atorvastatin Hemorrhage ([4]; ATV model induced by 1 μmol/L atorvastatin, inhibition of hemorrhage): +++++ (One + sign represents 20% inhibition on 1 μmol/L ATV or β-Pix MO-induced hemorrhage.)
- EC50 ([4]; read-out: EC50 (in nmol/L) on atorfvastatin model (μmol/L)): 64 nmol/L
- EC50 ([4]; read-out: EC50 to rescue brain hemorrhage, Statin Model): 24.7 nmol/L
- ICH incidence ([5]; 25 mg/kg i.p. with anti-β3 sera at P2, n=24, model control 77%): 47%
- Total volume of ICH (MRI) ([5]; preliminary data, data not shown, vs controls): reduced
